Results from ChEMBL document CHEMBL4043168, “The design and SAR of a novel series of 2-aminopyridine based LRRK2 inhibitors” (Bioorg Med Chem Lett, 2017).

Columns and labels:
[1] = target: Serine/threonine-protein kinase Nek7 (Homo sapiens) (UniProt Q8TDX7); experiment: Inhibition of NEK7 conserved Lys2 (DIKPANVFITATGVVK) in human PBMC at 0.1 uM
[2] = target: Phosphatidylinositol 4,5-bisphosphate 3-kinase catalytic subunit beta isoform (Homo sapiens) (UniProt P42338); experiment: Inhibition of PIK3CB ATP binding site (VFGEDSVGVIFKNGDDLRQDMLTLQMLR) in human PBMC at 1 uM
[3] = target: Ribosomal protein S6 kinase alpha-4 (Homo sapiens) (UniProt O75676); experiment: Inhibition of MSK2 domain1 conserved Lys2 (DIKLENILLDSNGHVVLTDFGLSK) in human PBMC at 1 uM
[4] = target: Serine/threonine-protein kinase WNK1 (Homo sapiens) (UniProt Q9H4A3); experiment: Inhibition of Wnk1 ATP binding site (GSFKTVYK) in human PBMC at 1 uM
[5] = target: Serine/threonine-protein kinase tousled-like 1 (Homo sapiens) (UniProt Q9UKI8); experiment: Inhibition of TLK1 conserved Lys2 (YLNEIKPPIIHYDLKPGNILLVDGTACGEIK) in human PBMC at 0.1 uM
[6] = target: Ribosomal protein S6 kinase alpha-1 (Homo sapiens) (UniProt Q15418); experiment: Inhibition of RSK1 domain1 activation Loop (LTDFGLSKEAIDHEKK) in human PBMC at 0.1 uM
[7] = Inhibition of GCK conserved Lys1 (DTVTSELAAVKIVK) in human PBMC at 1 uM
[8] = target: Tyrosine-protein kinase JAK1 (Homo sapiens) (UniProt P23458); experiment: Inhibition of JAK1 domain1 (QLASALSYLEDKDLVHGNVCTKNLLLAR) in human PBMC at 1 uM
[9] = target: T1, Interleukin-1 receptor-associated kinase 4 (Homo sapiens) (UniProt Q9NWZ3); experiment: Inhibition of IRAK4 conserved Lys2 (DIKSANILLDEAFTAK) in human PBMC at 1 uM
T1 sequence (whole entry): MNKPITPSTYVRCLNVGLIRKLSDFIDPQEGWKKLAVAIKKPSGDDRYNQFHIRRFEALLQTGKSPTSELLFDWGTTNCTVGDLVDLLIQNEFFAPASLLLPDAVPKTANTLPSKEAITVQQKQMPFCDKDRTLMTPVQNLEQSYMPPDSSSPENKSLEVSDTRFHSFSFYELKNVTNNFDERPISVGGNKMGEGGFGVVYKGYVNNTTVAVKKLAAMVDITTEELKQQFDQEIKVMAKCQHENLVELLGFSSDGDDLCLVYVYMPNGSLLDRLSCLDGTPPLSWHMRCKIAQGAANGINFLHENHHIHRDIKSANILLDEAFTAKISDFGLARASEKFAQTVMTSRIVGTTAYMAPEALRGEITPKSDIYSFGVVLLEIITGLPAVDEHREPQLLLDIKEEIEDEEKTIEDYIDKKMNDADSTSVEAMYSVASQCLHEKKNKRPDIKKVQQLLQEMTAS

[10] = target: T2, Mitogen-activated protein kinase kinase kinase 5 (Homo sapiens) (UniProt Q99683); experiment: Inhibition of MAP3K5 conserved Lys2 (DIKGDNVLINTYSGVLK) in human PBMC at 1 uM
T2 sequence (whole entry): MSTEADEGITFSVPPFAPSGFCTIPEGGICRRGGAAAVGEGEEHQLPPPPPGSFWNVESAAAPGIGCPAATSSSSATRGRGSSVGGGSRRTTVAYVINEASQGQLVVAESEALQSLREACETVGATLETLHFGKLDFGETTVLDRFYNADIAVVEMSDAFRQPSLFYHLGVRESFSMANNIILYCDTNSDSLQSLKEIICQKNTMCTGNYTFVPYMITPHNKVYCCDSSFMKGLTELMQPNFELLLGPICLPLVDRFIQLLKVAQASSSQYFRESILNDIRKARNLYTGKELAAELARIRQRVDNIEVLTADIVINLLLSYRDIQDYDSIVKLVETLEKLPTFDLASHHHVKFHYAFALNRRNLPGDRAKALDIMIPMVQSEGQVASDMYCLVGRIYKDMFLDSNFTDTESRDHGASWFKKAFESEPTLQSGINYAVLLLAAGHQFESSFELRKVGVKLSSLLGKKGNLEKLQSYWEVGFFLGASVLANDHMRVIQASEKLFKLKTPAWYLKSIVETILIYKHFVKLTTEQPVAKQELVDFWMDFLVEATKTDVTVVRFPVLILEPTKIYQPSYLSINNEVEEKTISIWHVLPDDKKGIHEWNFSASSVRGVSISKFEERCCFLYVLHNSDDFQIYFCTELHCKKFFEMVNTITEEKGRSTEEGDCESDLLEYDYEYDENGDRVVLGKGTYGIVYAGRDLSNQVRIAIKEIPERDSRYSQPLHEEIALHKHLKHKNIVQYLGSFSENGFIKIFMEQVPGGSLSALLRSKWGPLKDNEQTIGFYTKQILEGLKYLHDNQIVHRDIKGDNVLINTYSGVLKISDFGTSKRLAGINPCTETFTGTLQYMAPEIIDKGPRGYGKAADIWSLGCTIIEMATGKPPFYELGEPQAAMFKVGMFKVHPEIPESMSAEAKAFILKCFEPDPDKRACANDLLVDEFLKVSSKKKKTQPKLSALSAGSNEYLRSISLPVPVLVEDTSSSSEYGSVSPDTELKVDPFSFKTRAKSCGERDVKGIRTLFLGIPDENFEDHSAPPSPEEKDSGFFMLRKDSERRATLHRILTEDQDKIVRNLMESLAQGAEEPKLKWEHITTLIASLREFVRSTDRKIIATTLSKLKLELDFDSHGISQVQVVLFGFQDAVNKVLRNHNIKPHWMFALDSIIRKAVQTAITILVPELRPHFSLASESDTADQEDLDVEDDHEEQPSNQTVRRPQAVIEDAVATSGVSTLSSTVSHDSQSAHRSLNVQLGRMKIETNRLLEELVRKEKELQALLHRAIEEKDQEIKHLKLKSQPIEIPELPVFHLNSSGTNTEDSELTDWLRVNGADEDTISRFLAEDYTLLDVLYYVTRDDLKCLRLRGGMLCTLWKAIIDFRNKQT

Ribosomal protein S6 kinase alpha-1 (Homo sapiens), sequence (Q15418 whole entry, the tested form may be a part): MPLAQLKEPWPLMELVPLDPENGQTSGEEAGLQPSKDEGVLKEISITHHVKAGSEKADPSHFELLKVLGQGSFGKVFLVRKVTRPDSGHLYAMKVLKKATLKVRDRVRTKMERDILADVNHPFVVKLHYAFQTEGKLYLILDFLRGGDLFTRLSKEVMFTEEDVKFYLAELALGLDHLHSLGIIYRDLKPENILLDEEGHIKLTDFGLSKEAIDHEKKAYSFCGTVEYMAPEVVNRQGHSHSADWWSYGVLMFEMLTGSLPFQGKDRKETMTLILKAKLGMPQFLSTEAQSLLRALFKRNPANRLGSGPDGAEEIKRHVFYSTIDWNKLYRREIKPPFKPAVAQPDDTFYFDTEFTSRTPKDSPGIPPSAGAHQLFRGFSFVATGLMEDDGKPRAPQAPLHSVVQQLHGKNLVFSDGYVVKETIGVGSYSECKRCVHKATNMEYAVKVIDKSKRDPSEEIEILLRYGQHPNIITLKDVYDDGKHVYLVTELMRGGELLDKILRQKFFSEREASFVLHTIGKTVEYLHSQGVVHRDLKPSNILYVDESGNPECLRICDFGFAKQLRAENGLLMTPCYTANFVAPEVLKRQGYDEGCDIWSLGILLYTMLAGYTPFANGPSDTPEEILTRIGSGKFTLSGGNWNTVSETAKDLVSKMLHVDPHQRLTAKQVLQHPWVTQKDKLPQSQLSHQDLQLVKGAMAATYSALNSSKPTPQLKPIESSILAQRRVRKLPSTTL
Serine/threonine-protein kinase tousled-like 1 (Homo sapiens), sequence (Q9UKI8 whole entry, the tested form may be a part): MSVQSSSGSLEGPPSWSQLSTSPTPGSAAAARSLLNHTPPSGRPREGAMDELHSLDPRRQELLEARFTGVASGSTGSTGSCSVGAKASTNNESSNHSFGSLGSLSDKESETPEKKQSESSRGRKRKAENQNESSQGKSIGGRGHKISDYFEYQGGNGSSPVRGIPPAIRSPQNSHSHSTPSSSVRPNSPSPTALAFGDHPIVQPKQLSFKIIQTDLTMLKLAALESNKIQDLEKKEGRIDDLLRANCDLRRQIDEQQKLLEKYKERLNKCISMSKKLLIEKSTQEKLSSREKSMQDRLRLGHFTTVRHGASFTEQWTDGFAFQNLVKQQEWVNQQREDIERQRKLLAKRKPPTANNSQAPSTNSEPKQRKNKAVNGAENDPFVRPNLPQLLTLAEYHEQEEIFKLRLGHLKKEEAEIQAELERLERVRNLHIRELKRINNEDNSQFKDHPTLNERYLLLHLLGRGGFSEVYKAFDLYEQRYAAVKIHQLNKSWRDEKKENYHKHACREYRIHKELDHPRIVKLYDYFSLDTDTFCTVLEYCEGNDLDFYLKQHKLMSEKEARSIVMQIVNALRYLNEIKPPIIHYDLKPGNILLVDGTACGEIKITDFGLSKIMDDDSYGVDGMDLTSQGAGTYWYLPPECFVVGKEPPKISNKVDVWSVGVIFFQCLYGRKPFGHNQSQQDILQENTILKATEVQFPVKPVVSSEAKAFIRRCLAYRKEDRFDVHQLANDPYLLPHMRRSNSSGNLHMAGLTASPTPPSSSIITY
Serine/threonine-protein kinase WNK1 (Homo sapiens), sequence (Q9H4A3 whole entry, looked up): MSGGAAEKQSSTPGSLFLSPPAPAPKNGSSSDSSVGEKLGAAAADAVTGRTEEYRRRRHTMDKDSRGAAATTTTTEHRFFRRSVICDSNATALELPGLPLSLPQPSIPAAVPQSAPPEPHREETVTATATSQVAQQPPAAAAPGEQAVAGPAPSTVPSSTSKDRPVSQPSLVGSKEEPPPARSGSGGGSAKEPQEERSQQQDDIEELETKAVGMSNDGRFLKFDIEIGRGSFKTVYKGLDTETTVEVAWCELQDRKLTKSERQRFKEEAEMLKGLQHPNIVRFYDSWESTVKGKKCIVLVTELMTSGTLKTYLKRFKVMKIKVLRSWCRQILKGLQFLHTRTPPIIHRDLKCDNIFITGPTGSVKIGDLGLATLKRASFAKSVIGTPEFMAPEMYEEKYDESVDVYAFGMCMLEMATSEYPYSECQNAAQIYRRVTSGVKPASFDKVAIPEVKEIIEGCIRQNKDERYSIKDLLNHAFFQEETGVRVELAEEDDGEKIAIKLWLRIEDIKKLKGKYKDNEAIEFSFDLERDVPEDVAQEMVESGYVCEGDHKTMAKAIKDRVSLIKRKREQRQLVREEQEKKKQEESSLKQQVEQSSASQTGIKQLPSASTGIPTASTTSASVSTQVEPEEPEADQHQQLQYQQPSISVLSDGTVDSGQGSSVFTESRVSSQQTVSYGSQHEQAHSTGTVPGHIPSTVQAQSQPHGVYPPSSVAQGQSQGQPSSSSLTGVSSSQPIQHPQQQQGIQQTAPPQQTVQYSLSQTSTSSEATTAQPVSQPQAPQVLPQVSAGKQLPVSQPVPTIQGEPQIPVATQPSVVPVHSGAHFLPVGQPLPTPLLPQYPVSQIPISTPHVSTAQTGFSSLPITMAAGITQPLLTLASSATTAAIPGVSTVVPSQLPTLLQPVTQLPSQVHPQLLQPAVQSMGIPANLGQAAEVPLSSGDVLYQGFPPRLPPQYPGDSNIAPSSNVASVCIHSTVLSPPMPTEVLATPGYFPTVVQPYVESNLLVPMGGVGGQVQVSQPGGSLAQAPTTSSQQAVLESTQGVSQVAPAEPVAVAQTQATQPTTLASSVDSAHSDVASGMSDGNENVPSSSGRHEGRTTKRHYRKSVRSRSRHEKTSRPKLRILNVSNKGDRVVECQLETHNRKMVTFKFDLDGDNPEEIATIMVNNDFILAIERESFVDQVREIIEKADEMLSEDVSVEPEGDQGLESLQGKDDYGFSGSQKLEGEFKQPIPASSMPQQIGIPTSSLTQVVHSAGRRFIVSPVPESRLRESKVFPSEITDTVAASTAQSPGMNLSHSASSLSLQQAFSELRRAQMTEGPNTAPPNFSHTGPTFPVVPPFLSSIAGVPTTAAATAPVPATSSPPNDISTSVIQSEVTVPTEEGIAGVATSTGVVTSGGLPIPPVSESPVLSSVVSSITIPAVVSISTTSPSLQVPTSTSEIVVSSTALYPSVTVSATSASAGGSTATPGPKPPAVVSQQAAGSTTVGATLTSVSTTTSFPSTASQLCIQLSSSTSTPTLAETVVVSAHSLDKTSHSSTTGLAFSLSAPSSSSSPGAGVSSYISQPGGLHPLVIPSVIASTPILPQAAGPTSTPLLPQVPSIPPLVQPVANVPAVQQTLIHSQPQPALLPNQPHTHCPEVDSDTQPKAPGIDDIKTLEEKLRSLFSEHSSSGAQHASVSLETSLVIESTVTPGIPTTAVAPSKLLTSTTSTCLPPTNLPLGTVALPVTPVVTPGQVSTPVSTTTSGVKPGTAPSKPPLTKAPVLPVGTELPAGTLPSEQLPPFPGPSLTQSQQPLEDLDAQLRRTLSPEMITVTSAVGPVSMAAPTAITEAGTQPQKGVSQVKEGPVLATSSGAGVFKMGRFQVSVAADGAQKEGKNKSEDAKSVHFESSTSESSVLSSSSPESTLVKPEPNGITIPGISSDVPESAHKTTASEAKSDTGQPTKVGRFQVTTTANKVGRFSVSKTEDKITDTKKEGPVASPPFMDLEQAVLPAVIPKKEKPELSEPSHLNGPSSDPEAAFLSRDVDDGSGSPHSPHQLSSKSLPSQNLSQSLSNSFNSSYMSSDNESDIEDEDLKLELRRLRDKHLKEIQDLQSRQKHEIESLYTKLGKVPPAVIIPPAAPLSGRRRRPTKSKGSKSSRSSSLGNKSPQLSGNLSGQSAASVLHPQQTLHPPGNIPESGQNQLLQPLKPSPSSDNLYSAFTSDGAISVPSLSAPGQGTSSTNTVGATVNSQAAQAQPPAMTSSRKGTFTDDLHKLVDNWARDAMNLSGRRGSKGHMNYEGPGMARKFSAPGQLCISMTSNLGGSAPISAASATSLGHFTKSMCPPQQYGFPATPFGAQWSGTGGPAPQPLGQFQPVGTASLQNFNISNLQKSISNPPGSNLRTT
Serine/threonine-protein kinase Nek7 (Homo sapiens), sequence (Q8TDX7 whole entry, looked up, canonical isoform): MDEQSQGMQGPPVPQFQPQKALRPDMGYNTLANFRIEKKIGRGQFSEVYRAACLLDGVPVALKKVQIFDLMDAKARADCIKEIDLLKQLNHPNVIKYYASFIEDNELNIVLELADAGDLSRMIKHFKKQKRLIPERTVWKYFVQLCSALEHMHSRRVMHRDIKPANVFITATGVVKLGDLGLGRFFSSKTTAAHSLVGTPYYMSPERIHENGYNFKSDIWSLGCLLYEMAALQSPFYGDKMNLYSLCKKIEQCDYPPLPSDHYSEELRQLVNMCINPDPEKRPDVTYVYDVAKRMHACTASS
Ribosomal protein S6 kinase alpha-4 (Homo sapiens), sequence (O75676 whole entry, looked up, the tested form may be a part): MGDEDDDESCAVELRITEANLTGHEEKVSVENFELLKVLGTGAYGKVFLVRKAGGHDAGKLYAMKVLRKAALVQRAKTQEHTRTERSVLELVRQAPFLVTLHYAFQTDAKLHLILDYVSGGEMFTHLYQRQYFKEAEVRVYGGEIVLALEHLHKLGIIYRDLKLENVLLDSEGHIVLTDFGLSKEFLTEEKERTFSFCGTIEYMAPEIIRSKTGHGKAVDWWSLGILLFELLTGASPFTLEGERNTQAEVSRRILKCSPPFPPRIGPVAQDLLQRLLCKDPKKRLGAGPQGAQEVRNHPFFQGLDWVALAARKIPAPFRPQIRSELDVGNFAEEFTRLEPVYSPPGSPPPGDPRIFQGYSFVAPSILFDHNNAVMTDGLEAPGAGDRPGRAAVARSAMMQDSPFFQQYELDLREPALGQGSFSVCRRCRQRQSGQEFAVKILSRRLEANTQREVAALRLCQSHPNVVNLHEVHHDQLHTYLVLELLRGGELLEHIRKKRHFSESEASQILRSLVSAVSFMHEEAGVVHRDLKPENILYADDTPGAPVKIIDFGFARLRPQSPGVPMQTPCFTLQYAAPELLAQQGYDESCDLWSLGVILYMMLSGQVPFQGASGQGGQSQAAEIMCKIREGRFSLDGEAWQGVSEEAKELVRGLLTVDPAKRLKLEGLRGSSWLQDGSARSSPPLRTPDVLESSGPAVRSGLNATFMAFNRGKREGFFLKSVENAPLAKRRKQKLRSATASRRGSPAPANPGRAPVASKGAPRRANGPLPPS

Q: Which inhibition [1] does the source give for `CC(C)n1cc(-c2cc(-c3ccc(CN4CCOCC4)cc3)cnc2N)nn1` here?
A: -4.8%

Q: What about the inhibition [2] of the same compound?
A: 21.2%

Q: What about the inhibition [3] of the same compound?
A: 10.3%

Q: What about the inhibition [4] of the same compound?
A: 14.2%

Q: What about the inhibition [5] of the same compound?
A: -3.1%

Q: What about the inhibition [6] of the same compound?
A: 17.2%

Q: What about the inhibition [7] of the same compound?
A: 0.5%

Q: And the inhibition [8]?
A: 1.8%

Q: What about the inhibition [9] of the same compound?
A: -2.5%

Q: What about the inhibition [10] of the same compound?
A: 25.3%
